Here are results for 20 compounds from patent US20190152992A1, “BENZODIOXANE DERIVATIVES AND THEIR PHARMACEUTICAL USE” (Orion Corporation, priority 2016, published 2019).

One assay addresses T1, human alpha2A receptors (Homo sapiens, UniProt P08913).
T1 sequence (P08913 1-465): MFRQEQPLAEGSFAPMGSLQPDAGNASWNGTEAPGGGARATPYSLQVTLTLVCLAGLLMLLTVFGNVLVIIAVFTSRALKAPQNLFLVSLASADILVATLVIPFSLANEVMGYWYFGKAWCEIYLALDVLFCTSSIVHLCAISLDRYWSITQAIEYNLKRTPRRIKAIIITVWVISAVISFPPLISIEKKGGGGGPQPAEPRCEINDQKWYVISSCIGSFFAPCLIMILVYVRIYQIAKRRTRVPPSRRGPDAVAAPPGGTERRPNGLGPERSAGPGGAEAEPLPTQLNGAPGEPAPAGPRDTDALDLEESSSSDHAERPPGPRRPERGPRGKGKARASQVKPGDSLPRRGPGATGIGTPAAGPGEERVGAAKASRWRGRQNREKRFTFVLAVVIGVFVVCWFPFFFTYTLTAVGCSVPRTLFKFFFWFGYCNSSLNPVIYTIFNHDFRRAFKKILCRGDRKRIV
Kind of assay: cell-based.

The target in the next assay is T2, human alpha2C receptors (Homo sapiens, UniProt P18825).
T2 sequence (P18825 1-462): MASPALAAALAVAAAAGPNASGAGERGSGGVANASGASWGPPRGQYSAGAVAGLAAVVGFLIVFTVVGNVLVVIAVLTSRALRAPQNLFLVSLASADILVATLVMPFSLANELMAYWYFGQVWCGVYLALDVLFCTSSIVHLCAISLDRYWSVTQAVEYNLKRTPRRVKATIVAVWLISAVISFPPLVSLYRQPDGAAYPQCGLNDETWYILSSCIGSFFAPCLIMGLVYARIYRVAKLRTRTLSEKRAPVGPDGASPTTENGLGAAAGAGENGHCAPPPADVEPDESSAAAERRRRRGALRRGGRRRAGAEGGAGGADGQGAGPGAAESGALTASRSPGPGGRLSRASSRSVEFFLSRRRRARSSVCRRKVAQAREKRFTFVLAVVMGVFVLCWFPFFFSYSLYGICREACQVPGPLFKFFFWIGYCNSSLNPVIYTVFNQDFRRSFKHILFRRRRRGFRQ
Kind of assay: Determination of alpha2C antagonistic activity in vitro (FLIPR calcium assay). The following applies: for Kb: Alpha 2C Adrenaline Kb, Kb calculated from IC50 with the Cheng-Prusoff equation, adrenaline as agonist, CHO cells, human alpha2C.

Molecules are shown by their SMILES. Counter-ions that a name gives are not always drawn. Some results are limits rather than exact numbers.

On human alpha2A receptors, `CN1CCCN([C@H]2CCCN(C[C@H]3COc4ccccc4O3)C2)C1=O` [example 54, 1-((S)-1-(((S)-2,3-Dihydrobenzo[b][1,4]dioxin-2-yl)methyl)piperidin-3-yl)-3-methyltetrahydropyrimidin-2(1H)-one] came in with a half-maximal inhibitory concentration (IC50) above 10000 nM and a Kb above 449 nM. At human alpha2C receptors, the IC50 came out at 4.95 nM and the Kb was 0.5 nM.
The like results for `CCc1nc2cccnc2n1[C@H]1CCCN(C[C@H]2COc3ccccc3O2)C1` [example 159, 3-((S)-1-(((S)-2,3-Dihydrobenzo[b][1,4]dioxin-2-yl)methyl)piperidin-3-yl)-2-ethyl-3H-imidazo[4,5-b]pyridine] were, in that order, above 10000 nM, above 449 nM, 0.01 nM and 0.001 nM.
Taken in the same sequence, the figures for `CC(C)N1C(=O)N([C@H]2CCCN(C[C@H]3COc4ccccc4O3)C2)C(=O)C1(C)C` [example 116, 3-((S)-1-(((S)-2,3-Dihydrobenzo[b][1,4]dioxin-2-yl)methyl)-piperidin-3-yl)-1-isopropyl-5,5-dimethylimidazolidine-2,4-dione] were above 10000 nM, above 449 nM, 1 nM and 0.1 nM.
The like results for `O=C1c2ccc(F)cc2C(=O)N1[C@H]1CCCN(C[C@H]2COc3ccccc3O2)C1` [example 62, 2-((S)-1-(((S)-2,3-Dihydrobenzo[b][1,4]dioxin-2-yl)methyl)piperidin-3-yl)-5-fluoroisoindoline-1,3-dione] were, in that order, above 10000 nM, above 449 nM, below 0.1 nM and below 0.01 nM.
Turning to `Cc1nc2cnccc2n1[C@H]1CCCN(C[C@H]2COc3ccccc3O2)C1` [example 158, 1-((S)-1-(((S)-2,3-Dihydrobenzo[b][1,4]dioxin-2-yl)methyl)piperidin-3-yl)-2-methyl-1H-imidazo[4,5-c]pyridine], at human alpha2A receptors, the IC50 is above 10000 nM and the Kb was above 449 nM. Further, at human alpha2C receptors, the IC50 was determined as 3.43 nM and the Kb was 0.346 nM.
The like results for `CC(=O)NCC1CN([C@H]2CCCN(C[C@H]3COc4ccccc4O3)C2)C(=O)O1` (stereo partly drawn) [example 20, N-((3-((S)-1-(((S)-2,3-Dihydrobenzo[b][1,4]dioxin-2-yl)methyl)piperidin-3-yl)-2-oxooxazolidin-5-yl)methyl)acetamide] were, in that order, above 10000 nM, above 449 nM, 6.91 nM and 0.696 nM.
Taken in the same sequence, the figures for `Cn1ncc2c1CN([C@H]1CCCN(C[C@H]3COc4ccccc4O3)C1)C2=O` [example 80, 5-((S)-1-(((S)-2,3-Dihydrobenzo[b][1,4]dioxin-2-yl)methyl)piperidin-3-yl)-1-methyl-5,6-dihydropyrrolo[3,4-c]pyrazol-4(1H)-one] were above 10000 nM, above 449 nM, above 10000 nM and above 1010 nM.
Taken in the same sequence, the figures for `CC(C)N1CC(=O)N([C@H]2CCCN(C[C@H]3COc4ccccc4O3)C2)C1=O` [example 104, 3-((S)-1-(((S)-2,3-Dihydrobenzo[b][1,4]dioxin-2-yl)methyl)piperidin-3-yl)-1-isopropylimidazolidine-2,4-dione] were above 10000 nM, above 449 nM, 10 nM and 1.01 nM.
As to `C[C@@]1(c2ccccc2)CCN([C@H]2CCCN(C[C@H]3COc4ccccc4O3)C2)C1=O` [example 15, (S)-1-((S)-1-(((S)-2,3-Dihydrobenzo[b][1,4]dioxin-2-yl)methyl)-piperidin-3-yl)-3-methyl-3-phenylpyrrolidin-2-one], at human alpha2A receptors, the IC50 was above 10000 nM and the Kb is above 449 nM. For the same compound, on human alpha2C receptors, the half-inhibitory concentration (IC50) amounted to 363 nM and the Kb is 36.6 nM.
Turning to `c1ccc2c(c1)OC[C@H](CN1CCC[C@H](n3cnc4cncnc43)C1)O2` [example 161, 9-((S)-1-(((S)-2,3-Dihydrobenzo[b][1,4]dioxin-2-yl)methyl)-piperidin-3-yl)-9H-purine], on human alpha2A receptors, the IC50 is above 10000 nM and the Kb was above 449 nM. Besides, at human alpha2C receptors, the concentration for half-maximal inhibition (IC50) turned out to be 0.294 nM and the Kb is 0.03 nM.
Taken in the same sequence, the figures for `O=C1C(=O)N([C@H]2CCCN(C[C@H]3COc4ccccc4O3)C2)C(=O)N1Cc1cccnc1` [example 143, 1-((S)-1-(((S)-2,3-Dihydrobenzo[b][1,4]dioxin-2-yl)methyl)piperidin-3-yl)-3-(pyridin-3-ylmethyl)imidazolidine-2,4,5-trione] were above 10000 nM, above 449 nM, 1.38 nM and 0.14 nM.
`O=C1C(=O)N([C@H]2CCCN(C[C@H]3COc4ccccc4O3)C2)C(=O)N1C1CCNCC1` [example 137, 1-((S)-1-(((S)-2,3-Dihydrobenzo[b][1,4]dioxin-2-yl)methyl)piperidin-3-yl)-3-(piperidin-4-yl)imidazolidine-2,4,5-trione dihydrochloride]: on human alpha2A receptors, the half-inhibitory concentration (IC50) was above 10000 nM and the Kb was above 449 nM. On human alpha2C receptors, the half-inhibitory concentration (IC50) amounted to 5.5 nM and the Kb was 0.554 nM.
Consider `CC1(C)CC(=O)N([C@H]2CCCN(C[C@H]3COc4ccccc4O3)C2)C1` [example 1, 1-((S)-1-(((S)-2,3-Dihydrobenzo[b][1,4]dioxin-2-yl)methyl)piperidin-3-yl)-4,4-dimethylpyrrolidin-2-one], for which, on human alpha2A receptors, the IC50 is above 10000 nM and the Kb was above 449 nM. Further, at human alpha2C receptors, the IC50 is 0.32 nM and the Kb is 0.03 nM.
Taken in the same sequence, the figures for `CSc1ncc2c(n1)CN([C@H]1CCCN(C[C@H]3COc4ccccc4O3)C1)C2=O` [example 22, 6-((S)-1-(((S)-2,3-Dihydrobenzo[b][1,4]dioxin-2-yl)methyl)piperidin-3-yl)-2-(methylthio)-6,7-dihydro-5H-pyrrolo[3,4-d]pyrimidin-5-one] were above 10000 nM, above 449 nM, below 0.01 nM and below 0.001 nM.
The like results for `O=C1N(Cc2ccccc2)CCN1[C@H]1CCCN(C[C@H]2COc3ccccc3O2)C1` [example 50, 1-Benzyl-3-((S)-1-(((S)-2,3-dihydrobenzo[b][1,4]dioxin-2-yl)methyl)piperidin-3-yl)imidazolidin-2-one] were, in that order, 1020 nM, 46 nM, below 0.1 nM and below 0.01 nM.
Taken in the same sequence, the figures for `CN1C(=O)N([C@H]2CCCN(C[C@H]3COc4ccccc4O3)C2)C(=O)C12CC2` [example 123, 6-((S)-1-(((S)-2,3-Dihydrobenzo[b][1,4]dioxin-2-yl)methyl)-piperidin-3-yl)-4-methyl-4,6-diazaspiro[2.4]heptane-5,7-dione] were above 10000 nM, above 449 nM, 3.52 nM and 0.354 nM.
With `O=C1c2cccc(Cl)c2C(=O)N1[C@H]1CCCN(C[C@H]2COc3ccccc3O2)C1` [example 64, 4-Chloro-2-((S)-1-(((S)-2,3-dihydrobenzo[b][1,4]dioxin-2-yl)methyl)piperidin-3-yl)isoindoline-1,3-dione hydrochloride], the IC50 at human alpha2A receptors was above 10000 nM; on human alpha2C receptors it was 43.5 nM. In addition, the Kb at human alpha2A receptors was above 449 nM; at human alpha2C receptors it was 4.38 nM.
The like results for `O=C1C=C(c2ccccc2)CN1[C@H]1CCCN(C[C@H]2COc3ccccc3O2)C1` [example 39, 1-((S)-1-(((S)-2,3-Dihydrobenzo[b][1,4]dioxin-2-yl)methyl)piperidin-3-yl)-4-phenyl-1H-pyrrol-2(5H)-one] were, in that order, above 10000 nM, 1.79 nM, above 449 nM and 0.181 nM.
The like results for `O=S1(=O)Nc2ccccc2N1[C@H]1CCCN(C[C@H]2COc3ccccc3O2)C1` [example 146, 1-((S)-1-(((S)-2,3-Dihydrobenzo[b][1,4]dioxin-2-yl)methyl)piperidin-3-yl)-1,3-dihydrobenzo[c][1,2,5]thiadiazole 2,2-dioxide] were, in that order, 7190 nM, 1050 nM, 323 nM and 105 nM.
The like results for `O=C1C=C(c2ccc(F)cc2)CN1[C@H]1CCCN(C[C@H]2COc3ccccc3O2)C1` [example 41, 1-((S)-1-(((S)-2,3-Dihydrobenzo[b][1,4]dioxin-2-yl)methyl)piperidin-3-yl)-4-(4-fluorophenyl)-1H-pyrrol-2(5H)-one] were, in that order, above 10000 nM, 11.8 nM, above 449 nM and 1.19 nM.
